Assay results published in patent EP0565634B1, “ANGIOTENSIN II RECEPTOR BLOCKING COMPOSITIONS” (SMITHKLINE BEECHAM CORPORATION, priority 1990, dated 1992).
Like-named read-outs stand apart in the source and are kept apart here.

Experiments:
[1] = biological target: vascular angiotensin II receptors; experiment: Radioligand binding assay, displacement of 125I-angiotensin II; settings: particular fraction from rat mesenteric arteries, 80 pM 125I-angiotensin II, 1 hour at 25°C
Procedure: (§1) Angiotensin II antagonist activity of the compounds of Formula (I) is assessed by in vitro and in vivo methods. In vitro antagonist activity is determined by the ability of the compounds to compete with ^125I-angiotensin II for binding to vascular angiotensin II receptors and by their ability to antagonize the contractile response to angiotensin II in the isolated rabbit aorta. In vivo activity is evaluated by the efficacy of the compounds to inhibit the pressor response to exogenous angiotensin II in conscious rats and to lower blood pressure in a rat model of renin dependent hypertension.
The radioligand binding assay is a modification of a method previously described in detail (Gunther et al., Circ. Res. 47:278, 1980). A particular fraction from rat mesenteric arteries is incubated in Tris buffer with 80 pM of ^125I-angiotensin II with or without angiotensin II antagonists for 1 hour at 25°C. The incubation is terminated by rapid filtration and receptor bound ^125I-angiotensin II trapped on the filter is quantitated with a gamma counter. The potency of angiotensin II antagonists is expressed as the IC50 which is the concentration of antagonist needed to displace 50% of the total specifically bound angiotensin II. The IC50 of (E)-3-[2-n-butyl-1-{(4-carboxyphenyl)methyl}-1H-imidazol-5-yl]-2-(2-thienyl)methyl-2-propenoic acid is about 1.0 nM.

[2] = system: pressor response to exogenous angiotensin II; experiment: Inhibition of pressor response to angiotensin II in conscious rats; format: in vivo; settings: Rattus norvegicus, intravenous injections of 250 mg/kg angiotensin II, read-out: IC50 (dose needed to produce 50% inhibition of the control response to angiotensin II)
Procedure: as §1
Rats are prepared with indwelling femoral arterial and venous catheters and a stomach tube (Gellai et al., Kidney Int. 15:419, 1979). Two to three days following surgery the rats are placed in a restrainer and blood pressure is continuously monitored from the arterial catheter with a pressure transducer and recorded on a polygraph. The change in mean arterial pressure in response to intravenous injections of […] angiotensin II is compared at various time points prior to and following the administration of the compounds intravenously or orally at doses of 0.1 to 300 mg/kg. The dose of compound needed to produce 50% inhibition of the control response to angiotensin II (IC50) is used to estimate the potency of the compounds.

[3] = system: mean arterial pressure; experiment: Antihypertensive activity in renal artery ligated, renin-dependent hypertensive conscious rats; format: in vivo; settings: Rattus norvegicus, po, 192 h, orally, seven to eight days following ligation, read-out: IC30 (dose needed to reduce mean arterial pressure by 30 mmHg)
Procedure: as §1
The antihypertensive activity of the compounds is measured by their ability to reduce mean arterial pressure in conscious rats made renin-dependent hypertensive by ligation of the left renal artery (Cangiano et al;., J. Pharmacol. Exp. Ther. 208:310, 1979). Renal artery ligated rats are prepared with indwelling catheters as described above. Seven to eight days following renal artery ligation, the time at which plasma renin levels are highest, the conscious rats are placed in restrainers and mean arterial pressure is continuously recorded prior to and following the administration of the compounds intravenously or orally. The dose of compound needed to reduce mean arterial pressure by 30 mmHg (IC30) is used as an estimate of potency. […]

Work on CCCCc1ncc(/C=C(\Cc2cccs2)C(=O)O)n1Cc1ccc(C(=O)O)cc1 [(E)-3-[2-n-butyl-1-{(4-carboxyphenyl)methyl}-1H-imidazol-5-yl]-2-(2-thienyl)methyl-2-propenoic acid] yielded an IC50 [1] of about 1 nM, an ED50 ([2]; i.v.) of about 0.1 mg/kg and an ED50 ([2]; po, orally) of about 5.5 mg/kg. For the same molecule, the ED (30 mmHg) [3] was about 10 mg/kg.
